# Results: patent US5013743A, “Selective antibacterial agent against campytobacter” (Takeda Chemical Industries, Ltd., priority 1989, dated 1991)
# Legend:
# C. pylori NCTC 11637 = experiment: MIC, agar-plate dilution method, test strain B; format: cell-based; settings: Helicobacter pylori, NCTC11637, 72 h, Brucella agar, 37° C., 3 days
# Method: (§1) The minimum inhibitory concentration (MIC) of each compound was determined by the agar-plate dilution method based on the standard method advocated by Japan Society of Chemotherapy [cf: Chemotherapy, Jan. '81, p. 76]. The volume of agar medium per plate was 20 ml. Each of the test compounds was dissolved in dimethylsulfoxide at a concentration of 80 mg/ml or 40 mg/ml, and diluted 10 times with sterile distilled water. Furthermore, the aqueous solution of 8 mg/ml or 4 mg/ml was diluted serially 2-fold with sterile distilled water. To 2 ml of the diluted solution was added 18 ml of Brucella agar (BBL Microbiology Systems, Becton Dickinson and Co., Cockeysville, Md. 21030) containing 7% defibrinated horse blood (manufactured by Nippon Bio-supp. Center) and mixed well. Test strains frozen at -80° C. in Brucella broth (BBL) containing 10% horse serum were thawed and inoculated on a Brucella agar slant medium containing 7% defibrinated horse blood. The medium was incubated anaerobically at 37° C. for 3 days in a jar containing a piece of sponge sufficiently impregnated with water and Campy Pak™ (BBL). The organisms grown on the slant medium were collected and suspended in a Brucella broth to correspond to the turbidity of about 10^8 CFU/ml of common bacteria. One platinum loop of inoculum was streaked on the medium plates for determination. The plates were incubated under the same conditions as described above.
# C. pylori KS 13 = experiment: MIC, agar-plate dilution method, test strain E; format: cell-based; settings: Helicobacter pylori, KS13, 72 h, Brucella agar, 37° C., 3 days
# Method: as §1
# C. pylori CLO 1 = experiment: MIC, agar-plate dilution method, test strain F; format: cell-based; settings: Helicobacter pylori, CLO1, 72 h, Brucella agar, 37° C., 3 days
# Method: as §1
# C. pylori CLO 6 = experiment: MIC, agar-plate dilution method, test strain G; format: cell-based; settings: Helicobacter pylori, CLO6, 72 h, Brucella agar, 37° C., 3 days
# Method: as §1
# C. diphtheriae Tront = experiment: MIC, standard agar-plate dilution method, aerobic common bacteria; format: cell-based; settings: Corynebacterium diphtheriae
# Text: (§2) Antibacterial activities of some compounds of the present invention against aerobic common bacteria were examined.
# C. freundii IFO 12681 = experiment: as above; format: cell-based; settings: Citrobacter freundii, IFO12681
# Text: as §2
# C. freundii TN 474 = experiment: as above; format: cell-based; settings: Citrobacter freundii, TN474
# Text: as §2
# E. coli NIHJ JC-2 = experiment: as above; format: cell-based; settings: Escherichia coli, NIHJJC2
# Text: as §2
# K. pneumoniae DT = experiment: as above; format: cell-based; settings: Klebsiella pneumoniae
# Text: as §2
# S. aureus C 260 = experiment: as above; format: cell-based; settings: Staphylococcus aureus, C260
# Text: as §2
# S. aureus P 114 = experiment: as above; format: cell-based; settings: Staphylococcus aureus, P114
# Text: as §2
# S. faecium IFO 3128 = experiment: as above; format: cell-based; settings: Enterococcus faecium, IFO3128
# Text: as §2
# S. marcecens IFO 12648 = experiment: as above; format: cell-based
# Text: as §2
# genus Campylobacter = experiment: Antibacterial activity against the genus Campylobacter (Tables 2 and 3, summary in words); format: cell-based, Campylobacter pylori; settings: fluorinated alkyl derivatives vs other derivatives, Table 2 and Table 3
# Method: as §1
# [1] = Inspection of lyophilized compound (1) for solubility, appearance and content immediately after dissolution; format: physicochemical; settings: for Appearance / Clarity / Content: after dissolution; for Content: taken as 100.0% (HPLC)
# Method: (§3) The resulting filtrate was filled in 1 ml portions into vials of a 12 cm^3 capacity, followed by lyophilization by means of the conventional technique.
# (§4) *As measured by use of highperformance liquid chromatography (HPLC),
# (§5) whereby the content determined immediately after preparation was taken as
# (§6) Chromatographic conditions of HPLC:
# (§7) Nucleosil 5 C18 (supplied by GasChro Kogyo K.K. of Japan) 4.0 mm
# (§8) Methanol:water:triethylamine (60:40:1, pH 7)
# (§9) UV spectrophotometry at 285 mm
# [2] = Stability of the lyophilized compound (1) after being dissolved in vials, storage for 24 hours; format: physicochemical
# Method: as §3, §4, §5, §6, §7, §8, §9
# [3] = format: in vivo; settings: oral, mice, 200 mg/kg
structure (smiles),measurement,setting,value
Cc1c(OCC(F)(F)F)ccnc1C[S+]([O-])c1nc2ccccc2[nH]1 (stereo not drawn) [Compound 1],MIC,C. pylori NCTC 11637,6.25 µg/mL
same,MIC,C. pylori KS 13,6.25 µg/mL
same,MIC,C. pylori CLO 1,6.25 µg/mL
same,MIC,C. pylori CLO 6,3.13 µg/mL
same,MIC,C. diphtheriae Tront,> 400 µg/mL
same,MIC,C. freundii IFO 12681,> 400 µg/mL
same,MIC,C. freundii TN 474,> 400 µg/mL
same,MIC,E. coli NIHJ JC-2,> 400 µg/mL
same,MIC,K. pneumoniae DT,> 400 µg/mL
same,MIC,S. aureus C 260,> 400 µg/mL
same,MIC,S. aureus P 114,> 400 µg/mL
same,MIC,S. faecium IFO 3128,> 400 µg/mL
same,MIC,S. marcecens IFO 12648,> 400 µg/mL
same,antibacterial activity compared with other derivatives,genus Campylobacter,stronger antibacterial activity
same,pH after dissolution,[1]; Solvent A,8.7
same,Solubility,"[1]; Solvent A (N-methylglucamine, HCl, propylene glycol, ethanol)",Good
same,pH after dissolution,[1]; Solvent B,9.0
same,Solubility,"[1]; Solvent B (N-methylglucamine, HCl, polyethylene glycol 400, ethanol, water)",Good
same,pH after dissolution,[1]; Solvent C,9.0
same,Solubility,"[1]; Solvent C (N-methylglucamine, HCl, ethanol, propylene glycol, water)",Good
same,pH after dissolution,[1]; Solvent D,9.0
same,Solubility,"[1]; Solvent D (N-methylglucamine, HCl, polyethylene glycol 400, water)",Good
same,dissolution speed,[1]; Solvents A to D,dissolved quickly
same,solubilities of the lyophilized powder in all of these solvents,[1]; Solvents A to D,excellent solubilities
same,Appearance,[1]; Solvent A,Colorless
same,Clarity,[1]; Solvent A,Clear
same,Content,[1]; Solvent A,100%
same,Appearance,[1]; Solvent B,Colorless
same,Clarity,[1]; Solvent B,Clear
same,Content,[1]; Solvent B,100%
same,Appearance,[1]; Solvent C,Colorless
same,Clarity,[1]; Solvent C,Clear
same,Content,[1]; Solvent C,100%
same,Appearance,[1]; Solvent D,Colorless
same,Clarity,[1]; Solvent D,Clear
same,Content,[1]; Solvent D,100%
same,change in content of compound (1),"[2]; Solvents A to D, 24 hours",decrease slightly
same,change in the stage of solution,"[2]; Solvents A to D, 24 hours",no change in the stage of solution
same,Clarity,"[2]; after storage at 5° C. for 24 hrs., Solvent A",Clear
same,Clarity,"[2]; after storage at 5° C. for 24 hrs., Solvent B",Clear
same,Clarity,"[2]; after storage at 5° C. for 24 hrs., Solvent C",Clear
same,Clarity,"[2]; after storage at 5° C. for 24 hrs., Solvent D",Clear
same,Appearance,"[2]; after storage at 5° C. for 24 hrs., Solvents A to D",Slightly to lightly green-yellow
same,changes in appearance,[2]; immediately after dissolution and after storage for 24 hours,slight changes in appearance
COc1ccc2[nH]c([S+]([O-])Cc3ncc(C)c(OC)c3C)nc2c1 (stereo not drawn) [Compound 2],MIC,C. pylori NCTC 11637,25 µg/mL
same,MIC,C. pylori KS 13,25 µg/mL
same,MIC,C. pylori CLO 1,25 µg/mL
same,MIC,C. pylori CLO 6,12.5 µg/mL
same,MIC,C. diphtheriae Tront,> 400 µg/mL
same,MIC,C. freundii IFO 12681,> 400 µg/mL
same,MIC,C. freundii TN 474,> 400 µg/mL
same,MIC,E. coli NIHJ JC-2,> 400 µg/mL
same,MIC,K. pneumoniae DT,> 400 µg/mL
same,MIC,S. aureus C 260,> 400 µg/mL
same,MIC,S. aureus P 114,> 400 µg/mL
same,MIC,S. faecium IFO 3128,> 400 µg/mL
same,MIC,S. marcecens IFO 12648,> 400 µg/mL
Cc1c(OCC(F)(F)F)ccnc1CSc1nc2ccccc2[nH]1 [Compound 6],MIC,C. pylori NCTC 11637,12.5 µg/mL
same,MIC,C. pylori KS 13,12.5 µg/mL
same,MIC,C. pylori CLO 1,25 µg/mL
same,MIC,C. pylori CLO 6,6.25 µg/mL
same,MIC,C. diphtheriae Tront,> 400 µg/mL
same,MIC,C. freundii IFO 12681,> 400 µg/mL
same,MIC,C. freundii TN 474,> 400 µg/mL
same,MIC,E. coli NIHJ JC-2,> 400 µg/mL
same,MIC,K. pneumoniae DT,> 400 µg/mL
same,MIC,S. aureus C 260,> 400 µg/mL
same,MIC,S. aureus P 114,> 400 µg/mL
same,MIC,S. faecium IFO 3128,> 400 µg/mL
same,MIC,S. marcecens IFO 12648,> 400 µg/mL
same,antibacterial activity compared with other derivatives,genus Campylobacter,stronger antibacterial activity
same,dead animals,[3],no dead animals
